# Assay results published in patent publication USRE33699E, “Growth hormone-releasing factor analogs” (International Minerals & Chemical Corp., priority 1990, dated 1991).
# Square brackets hold non-standard residues; d marks the D form. Peptide text beside a SMILES is read from it. Nle = CCCC[C@H](N)C(=O)O
# Tested on: rat pituitary cells
# Test: Bioassay of hGRF analogs: stimulation of growth hormone release in rat pituitary cells in tissue culture
# Format: cell-based
# Settings: for Potency: (ED50 of hGRF)/(Dose required to give same response as ED50 of hGRF)
# From the text: The assay for biological activity, which is based on the ability to stimulate release of growth hormone in rat pituitary cells in tissue culture, has been described in detail (Culler, M. D.; Kenjo, T.: Obara, N.; Arimuar, A., Stimulation of cAMP. Accumulation by Human Pancreatic GH-Releasing Factor(1-44). Am. J. Physiol. 1984, 247 (Endocrinol.Metab. 10). E609-E615.
# ALLFIT, the 4-parameter logistic curve fitting program available from the Biomedical Computer Technology Information Center, Vanderbilt Medical Center, Nashville Tenn., was used to determine ED50 and maximal stimulated values from the data. In several instances, the amount of GH released reached a maximum value and decreased with further increasing doses of the hGRF analogs. To simplify the data analysis, these values were not used in the calculations. The calculated maximal responses, the doses of the analog required to release the amount of GH released at the ED50 of the standard (hGRF) and the potencies of the analogs relative to hGRF, are given in Table 2. Generally all novel analogs were fully active and were able to stimulate the release of growth hormone with maximal values of GH release being within 80% of the value for natural hGRF.
smiles,measurement,setting,value
"CCCC[C@H](NC(=O)[C@@H](NC(=O)[C@H](CC(N)=O)NC(=O)[C@H](CCC(N)=O)NC(=O)[C@H](CC(C)C)NC(=O)[C@H](CC(C)C)NC(=O)[C@H](CCCCN)NC(=O)[C@H](CCCNC(=N)N)NC(=O)[C@H](C)NC(=O)[C@H](CO)NC(=O)[C@H](CC(C)C)NC(=O)[C@H](CCC(N)=O)NC(=O)CNC(=O)[C@H](CC(C)C)NC(=O)[C@@H](NC(=O)[C@H](CCCCN)NC(=O)[C@H](CCCNC(=N)N)NC(=O)[C@H](Cc1ccc(O)cc1)NC(=O)[C@H](CO)NC(=O)[C@H](CC(=O)O)NC(=O)[C@@H](NC(=O)[C@H](Cc1ccccc1)NC(=O)[C@@H](NC(=O)[C@H](C)NC(=O)[C@H](CC(N)=O)NC(=O)[C@H](C)NC(=O)[C@@H](N)Cc1ccc(O)cc1)[C@@H](C)CC)[C@@H](C)O)C(C)C)[C@@H](C)CC)C(=O)N[C@@H](CO)C(=O)N[C@@H](CCCNC(=N)N)C(=O)N[C@@H](CCC(N)=O)C(=O)N[C@@H](CCC(N)=O)C(N)=O [[Asn^3,Asp^8,Asn^25,Nle^27]-hGRF(1-31)--NH2] (H-YANAIFTDSYRKVLGQLSARKLLQNI[Nle]SRQQ-NH2)",Dose Needed to Release 2.01 μg/ml of GH,"2.01 μg/ml = GH released at the ED50 of hGRF, from ALLFIT curves",12.05 nM
same,Potency,,5%
same,Potency,"Asp^8, Asn^25, Nle^27 ]",3%
same,Relative Maximum Activity (% of hGRF),from ALLFIT curves,94 % of hGRF
